Test [1] concerns methicillin-resistant Staphylococcus aureus (MRSA). Nature of the test: In vitro antibacterial activity, broth microdilution (MIC90). The conditions noted are these: read-out: Antibacterial activity MIC90, MRSA. (In general: Broth dilution looks for growth in wells or tubes with falling amounts of substance.)
Source text: (§1) MIC90 measurement was made according to the broth microdilution method based on the CLSI document [Clinical and Laboratory Standards Institute Document.
(§2) The test compounds in DMSO solution were further diluted 20-fold with sterile distilled water.
Test [2] has as its system linezolid- and vancomycin-resistant Enterococcus faecalis (LVRE). Described as above. The conditions noted are these: read-out: Antibacterial activity MIC90, LVRE.
Source text: as §1, §2

Values after ≈ are worked out from the molar mass of the structure shown.

One may read the MIC90 as an inhibitory concentration at the 90% level, which refers to growth in some studies and to a panel of isolates in others.

`CC(=O)NC[C@H]1CN(c2ccc(N3C=NN(C=O)CC3)c(F)c2)C(=O)O1` [Compound 1]: the MIC90 in test [1] turned out to be 1 µg/mL (≈ 2.75 µM). Further, the MIC in test [2] was found to be 8 µg/mL (≈ 22 µM).
Taken in the same sequence, the figures for `CC(=O)NC[C@H]1CN(c2ccc(N3C=NNCC3)c(F)c2)C(=O)O1` [Compound 2] were 2 µg/mL (≈ 5.96 µM) and 16 µg/mL (≈ 47.7 µM).
Taken in the same sequence, the figures for `CC(=O)NC[C@H]1CN(c2ccc(N3C=NN(C)CC3)c(F)c2)C(=O)O1` [Compound 3] were 2 µg/mL (≈ 5.72 µM) and 8 µg/mL (≈ 22.9 µM).
Regarding `C=CCN1CCN(c2ccc(N3C[C@H](CNC(C)=O)OC3=O)cc2F)C=N1` [Compound 4], in test [1], the MIC90 came to 1 µg/mL (≈ 2.66 µM). Also, the MIC in test [2] was 8 µg/mL (≈ 21.3 µM).
For `C#CCN1CCN(c2ccc(N3C[C@H](CNC(C)=O)OC3=O)cc2F)C=N1` [Compound 5], the MIC90 in test [1] is 1 µg/mL (≈ 2.68 µM). Also, the MIC in test [2] turned out to be 8 µg/mL (≈ 21.4 µM).
Taken in the same sequence, the figures for `CCN1CCN(c2ccc(N3C[C@H](CNC(C)=O)OC3=O)cc2F)C=N1` [Compound 6] were 2 µg/mL (≈ 5.5 µM) and 8 µg/mL (≈ 22 µM).
`CC(=O)NC[C@H]1CN(c2ccc(N3C=NN(CC#N)CC3)c(F)c2)C(=O)O1` [Compound 7]: in test [1], the MIC90 was found to be 1 µg/mL (≈ 2.67 µM). The MIC in test [2] came out at 8 µg/mL (≈ 21.4 µM).
Taken in the same sequence, the figures for `CC(=O)NC[C@H]1CN(c2ccc(N3C=NN(CC(F)(F)F)CC3)c(F)c2)C(=O)O1` [Compound 8] were 4 µg/mL (≈ 9.58 µM) and 16 µg/mL (≈ 38.3 µM).
For `CC(=O)NC[C@H]1CN(c2ccc(N3C=NN(C#N)CC3)c(F)c2)C(=O)O1` [Compound 9], in that order: 0.5 µg/mL (≈ 1.39 µM) and 8 µg/mL (≈ 22.2 µM).
For `CC(=O)NC[C@H]1CN(c2ccc(N3C=NN(C(C)=O)CC3)c(F)c2)C(=O)O1` [Compound 10], in that order: 4 µg/mL (≈ 10.6 µM) and 32 µg/mL (≈ 84.8 µM).
With `CC(=O)NC[C@H]1CN(c2ccc(N3C=NN(C(=O)CC#N)CC3)c(F)c2)C(=O)O1` [Compound 11], the MIC90 in test [1] stood at 1 µg/mL (≈ 2.49 µM). Also, in test [2], the MIC was found to be 8 µg/mL (≈ 19.9 µM).
For `CC(=O)NC[C@H]1CN(c2ccc(N3C=NN(C(=O)CO)CC3)c(F)c2)C(=O)O1` [Compound 12], in that order: 2 µg/mL (≈ 5.08 µM) and 8 µg/mL (≈ 20.3 µM).
Taken in the same sequence, the figures for `CC(=O)NC[C@H]1CN(c2ccc(N3C=NN(C(=O)C4CC4)CC3)c(F)c2)C(=O)O1` [Compound 13] were 4 µg/mL (≈ 9.92 µM) and 16 µg/mL (≈ 39.7 µM).
For `CC(=O)NC[C@H]1CN(c2ccc(N3C=NN(C(N)=O)CC3)c(F)c2)C(=O)O1` [Compound 14], in that order: 2 µg/mL (≈ 5.29 µM) and 8 µg/mL (≈ 21.1 µM).
Regarding `CC(=O)NC[C@H]1CN(c2ccc(N3C=NN(C(=O)NCCO)CC3)c(F)c2)C(=O)O1` [Compound 15], in test [1], the MIC90 worked out at 4 µg/mL (≈ 9.47 µM). Moreover, the MIC in test [2] came out at 8 µg/mL (≈ 18.9 µM).
Taken in the same sequence, the figures for `CC(=O)NC[C@H]1CN(c2ccc(N3C=NN(C(=O)N(CCO)CCO)CC3)c(F)c2)C(=O)O1` [Compound 16] were 128 µg/mL (≈ 274 µM) and above 128 µg/mL.
In the case of `CC(=O)NC[C@H]1CN(c2ccc(N3C=NN(C(=O)C(F)F)CC3)c(F)c2)C(=O)O1` [Compound 17], the MIC90 in test [1] came to 1 µg/mL (≈ 2.42 µM). Also, in test [2], the MIC was 8 µg/mL (≈ 19.4 µM).
Taken in the same sequence, the figures for `CC(=O)NC[C@H]1CN(c2ccc(N3C=NN(S(C)(=O)=O)CC3)c(F)c2)C(=O)O1` [Compound 18] were 4 µg/mL (≈ 9.68 µM) and 16 µg/mL (≈ 38.7 µM).
Taken in the same sequence, the figures for `CNC(=S)N1CCN(c2ccc(N3C[C@H](CNC(C)=O)OC3=O)cc2F)C=N1` [Compound 19] were 0.5 µg/mL (≈ 1.22 µM) and 4 µg/mL (≈ 9.79 µM).
For the molecule `CC(=O)NC[C@H]1CN(c2ccc(N3C=NN(S(N)(=O)=O)CC3)c(F)c2)C(=O)O1` [Compound 20], in test [1], the MIC90 was 16 µg/mL (≈ 38.6 µM). Besides, the MIC in test [2] is 64 µg/mL (≈ 154 µM).
For `CC(=O)NC[C@H]1CN(c2ccc(N3C=NN(S(=O)(=O)N(C)C)CC3)c(F)c2)C(=O)O1` [Compound 21], in that order: 2 µg/mL (≈ 4.52 µM) and 4 µg/mL (≈ 9.04 µM).
Taken in the same sequence, the figures for `CCOC(=O)CN1CCN(c2ccc(N3C[C@H](CNC(C)=O)OC3=O)cc2F)C=N1` [Compound 24] were 2 µg/mL (≈ 4.75 µM) and 16 µg/mL (≈ 38 µM).
For `CC(=O)NC[C@H]1CN(c2ccc(N3C=NN(CC(N)=O)CC3)c(F)c2)C(=O)O1` [Compound 25], in that order: 4 µg/mL (≈ 10.2 µM) and 32 µg/mL (≈ 81.6 µM).
